Measurements as given in the NIST ThermoML archive (doi:10.1016/j.fluid.2014.03.001).
± gives the expanded uncertainty stated by the source.

Conditions: Crystal 1; DTA

| Normal melting temperature | SMILES |
| --- | --- |
| -18.8 ± 0.7 °C | CCCCCCCC/C=C\CCCCCCCC(=O)OCC [ethyl (Z)-9-octadeceneoate] |
| 14.2 ± 0.5 °C | CCCCCCCCCCCCCC(=O)OCC [ethyl tetradecanoate] |
| 34.7 ± 0.7 °C | CCCCCCCCCCCCCCCCCC(=O)OCC [ethyl octadecanoate] |
